# Test results: ChEMBL document CHEMBL3885861, “Open TG-GATES”
# Organism: Rattus norvegicus
# Assay: Open TG-GATES - Regimen: Daily Repeat
# Type: toxicity, organism-based, Sprague-Dawley
# Parameters: regimen Daily Repeat, gender Male, age 6 weeks
# Conditions: in vivo, po, route gavage; for ALP / ALT / AST / BUN / CRE / Ca / Cl / DBIL / GLC / IP / K / LDH / Na / PL / RALB / TBIL / TC / TG / TP / gamma-GTP / A/G: tissue Plasma; for APTT / Bas / Eos / Fbg / Hb / Ht / Lym / MCH / MCHC / MCV / Mono / Neu / PT / Plat / RBC / Ret / WBC: tissue Blood; for KIDNEY_L / KIDNEY_R / KIDNEY_TOTAL: tissue Kidney; for LIVER: tissue Liver
# [1] = 1 mg/kg, […], dose level Middle, time 28 day
# [2] = 3 mg/kg, 72 h, dose level High, time 3 day
# [3] = 3 mg/kg, […], dose level High, time 7 day
# [4] = 3 mg/kg, […], dose level High, time 14 day
compound,measurement,setting,value
CN1C(C(=O)Nc2ccccn2)=C(O)c2sc(Cl)cc2S1(=O)=O [LORNOXICAM],ALP,[1],589.2 IU/L
same,ALT,[1],31.8 IU/L
same,AST,[1],76.2 IU/L
same,BUN,[1],19 mg/dL
same,CRE,[1],0.5 mg/dL
same,Ca,[1],10.2 mg/dL
same,Cl,[1],104 meq/L
same,DBIL,[1],0.0925 mg/dL
same,GLC,[1],206.5 mg/dL
same,IP,[1],6.3 mg/dL
same,K,[1],3.8 meq/L
same,LDH,[1],194.2 IU/L
same,Na,[1],141.8 meq/L
same,PL,[1],142.8 mg/dL
same,RALB,[1],3.3 g/dL
same,TBIL,[1],0.2 mg/dL
same,TC,[1],69.8 mg/dL
same,TG,[1],150.2 mg/dL
same,TP,[1],5.8 g/dL
same,gamma-GTP,[1],1.5 IU/L
same,TERMINAL_BW,[2],235 g
same,APTT,[2],18.3 s
same,Bas,[2],0.8%
same,Eos,[2],0.6%
same,Fbg,[2],354.8 mg/dL
same,Hb,[2],11.6 g/dL
same,Ht,[2],35.4%
same,Lym,[2],56.8%
same,MCH,[2],20.5 pg
same,MCHC,[2],32.9%
same,MCV,[2],62.4 fL
same,Mono,[2],6%
same,Neu,[2],29.2%
same,PT,[2],11.4 s
same,Plat,[2],121.4 x10_4/uL
same,RBC,[2],568.2 x10_4/ul
same,Ret,[2],6.5%
same,WBC,[2],164.3 x10_2/uL
same,KIDNEY_L,[2],1.2 g
same,KIDNEY_R,[2],1.1 g
same,KIDNEY_TOTAL,[2],2.3 g
same,LIVER,[2],12 g
same,A/G,[2],0.9
same,ALP,[2],648.6 IU/L
same,ALT,[2],30 IU/L
same,AST,[2],57.4 IU/L
same,BUN,[2],12.4 mg/dL
same,CRE,[2],0.4 mg/dL
same,Ca,[2],10.5 mg/dL
same,Cl,[2],103.8 meq/L
same,DBIL,[2],0.07 mg/dL
same,GLC,[2],194 mg/dL
same,IP,[2],8 mg/dL
same,K,[2],4.4 meq/L
same,LDH,[2],163 IU/L
same,Na,[2],140.8 meq/L
same,PL,[2],142.8 mg/dL
same,RALB,[2],2.4 g/dL
same,TBIL,[2],0.1 mg/dL
same,TC,[2],70.8 mg/dL
same,TG,[2],131.6 mg/dL
same,TP,[2],4.9 g/dL
same,gamma-GTP,[2],1.4 IU/L
same,TERMINAL_BW,[3],246.6 g
same,APTT,[3],18 s
same,Bas,[3],1%
same,Eos,[3],1%
same,Fbg,[3],362 mg/dL
same,Hb,[3],10.9 g/dL
same,Ht,[3],32.8%
same,Lym,[3],56%
same,MCH,[3],20.2 pg
same,MCHC,[3],33.2%
same,MCV,[3],61 fL
same,Mono,[3],4.7%
same,Neu,[3],36.3%
same,PT,[3],11.1 s
same,Plat,[3],232.1 x10_4/uL
same,RBC,[3],537.7 x10_4/ul
same,Ret,[3],6%
same,WBC,[3],243.6 x10_2/uL
same,KIDNEY_L,[3],1.2 g
same,KIDNEY_R,[3],1.2 g
same,KIDNEY_TOTAL,[3],2.3 g
same,LIVER,[3],11.3 g
same,A/G,[3],0.8
same,ALP,[3],606 IU/L
same,ALT,[3],23.7 IU/L
same,AST,[3],58.3 IU/L
same,BUN,[3],9 mg/dL
same,CRE,[3],0.4 mg/dL
same,Ca,[3],10.3 mg/dL
same,Cl,[3],105.3 meq/L
same,DBIL,[3],0.0567 mg/dL
same,GLC,[3],176 mg/dL
same,IP,[3],7.7 mg/dL
same,K,[3],4.3 meq/L
same,LDH,[3],206.7 IU/L
same,Na,[3],141.3 meq/L
same,PL,[3],147 mg/dL
same,RALB,[3],2.4 g/dL
same,TBIL,[3],0.1 mg/dL
same,TC,[3],73.3 mg/dL
same,TG,[3],114.7 mg/dL
same,TP,[3],5.3 g/dL
same,gamma-GTP,[3],2 IU/L
same,GLC,[4],178 mg/dL
same,gamma-GTP,[4],1 IU/L
